Laboratory results as given in patent publication US10570122B2, “Compounds with anti-tumoral activity” (AB Science, priority 2015, dated 2020).

Assays:
[1] = tested on: HGC27; experiment: CellTiter-Blue cell-based survival/proliferation assay, HGC27; conditions: Homo sapiens, HGC-27; HGC27 stomach tumor cell line, 48 h
How it was run: (§1)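 Compounds, diluted tenfold serially over 0–10 μM, are applied to 1·10^4 seeded cells per well for 48 h at 37 °C. Resorufin formed during a further 4 h with CellTiter-Blue is detected by fluorescence emission at 590 nm.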

[2] = tested on: MESSA; experiment: CellTiter-Blue cell-based survival/proliferation assay, MESSA; conditions: Homo sapiens, MES-SA; MESSA ovary tumor cell line, 48 h
How it was run: as §1

[3] = tested on: TOV112D; experiment: CellTiter-Blue cell-based survival/proliferation assay, TOV112D; conditions: Homo sapiens; TOV112D ovary tumor cell line, 48 h
How it was run: as §1

[4] = tested on: PLCPRF5; experiment: CellTiter-Blue cell-based survival/proliferation assay, PLCPRF5; conditions: Homo sapiens, PLC-PRF-5; PLC_PRF5 liver tumor cell line, 48 h
How it was run: as §1

[5] = tested on: HCT116; experiment: CellTiter-Blue cell-based survival/proliferation assay, HCT116; conditions: Homo sapiens, HCT-116; HCT116 colorectal tumor cell line, 48 h
How it was run: as §1

[6] = tested on: PANC1; experiment: CellTiter-Blue cell-based survival/proliferation assay, PANC1; conditions: Homo sapiens, PANC-1; PANC_1 pancreas tumor cell line, 48 h
How it was run: as §1

[7] = tested on: ACHN; experiment: CellTiter-Blue cell-based survival/proliferation assay, ACHN; conditions: Homo sapiens; ACHN kidney tumor cell line, 48 h
How it was run: as §1

[8] = tested on: BXPC3; experiment: CellTiter-Blue cell-based survival/proliferation assay, BXPC3; conditions: Homo sapiens, BXPC-3; BXPC3 pancreas tumor cell line, 48 h
How it was run: as §1

[9] = tested on: AGS; experiment: CellTiter-Blue cell-based survival/proliferation assay, AGS; conditions: Homo sapiens; AGS stomach tumor cell line, 48 h
How it was run: as §1

[10] = tested on: H1299; experiment: CellTiter-Blue cell-based survival/proliferation assay, H1299; conditions: Homo sapiens, NCI-H1299; H1299 lung tumor cell line, 48 h
How it was run: as §1

[11] = tested on: human kinases (456 kinases); experiment: KINOMEscan in vitro kinase profiling; assay type: binding
Protocol: An in vitro kinase profiling was conducted in order to evidence the absence of protein kinase inhibition by the compounds of the invention.
DiscoveRx (Ambit Biosciences) has developed a high-throughput system (KINOMEscan™) for screening of compounds against large numbers of human kinases (456 kinases).
The compounds of the invention were screened at the concentration of 1 μM, and results for primary screen binding interactions were reported as percent control (% Ctrl), where lower numbers indicate stronger hits. DMSO is used as a negative control (100% Ctrl) while a high affinity compound is used as a positive control (0% Ctrl). % Ctrl is calculated as follow:
[formula] Selectivity Score or S-score is a quantitative measure of compound selectivity. It is calculated by dividing the number of kinases that compounds bind to by the total number of distinct kinases tested, excluding mutant variants. S(10)=(number of kinases with % Ctrl<10)/(number of kinases tested), S(1)=(number of kinases with % Ctrl<1)/(number of kinases tested).

[12] = tested on: A498; experiment: CellTiter-Blue cell-based survival/proliferation assay, A498; conditions: Homo sapiens; A498 kidney tumor cell line, 48 h
How it was run: as §1

[13] = tested on: A549; experiment: CellTiter-Blue cell-based survival/proliferation assay, A549; conditions: Homo sapiens; A549 lung tumor cell line, 48 h
How it was run: as §1

[14] = tested on: HL60; experiment: CellTiter-Blue cell-based survival/proliferation assay, HL60; conditions: Homo sapiens, HL-60, Leukemia cell line HL60, 48 h, read-out: Anti-tumoral activity (measured IC50) HL60
How it was run: as §1

[15] = tested on: PC3; experiment: CellTiter-Blue cell-based survival/proliferation assay, PC3; conditions: Homo sapiens, PC-3; PC3 prostate tumor cell line, 48 h
How it was run: as §1

[16] = tested on: BT20; experiment: CellTiter-Blue cell-based survival/proliferation assay, BT20; conditions: Homo sapiens, BT-20; BT20 breast tumor cell line, 48 h
How it was run: as §1

[17] = tested on: OPM2; experiment: CellTiter-Blue cell-based survival/proliferation assay, OPM2; conditions: Homo sapiens, OPM-2, Myeloma cell line OPM2, 48 h, read-out: Anti-tumoral activity (measured IC50) OPM2
How it was run: as §1

[18] = tested on: SW579; experiment: CellTiter-Blue cell-based survival/proliferation assay, SW579; conditions: Homo sapiens; SW579 head & neck tumor cell line, 48 h
How it was run: as §1

[19] = tested on: panel of about 34 human tumor cell lines; experiment: Cell-based proliferation screening on panel of tumor cell lines; conditions: solid tumor cell line, cell line unknown, 48 h, read-out: IC50, solid tumor cell line of column 6 (last section of Table 3)
How it was run: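 CellTiter-Blue survival assay with 1·10^4 cells/well, each line treated 48 h at 37° C with 1/10 serial dilutions from 0 to 10 μM. Resorufin formed during a 4 h reagent incubation is read by fluorescence at 590 nm. A cell-free blank serves as background.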

[20] = tested on: REC1; experiment: CellTiter-Blue cell-based survival/proliferation assay, REC1; conditions: Homo sapiens, Lymphoma cell line REC1, 48 h, read-out: Anti-tumoral activity (measured IC50) REC1
How it was run: as §1

[21] = tested on: CALU6; experiment: CellTiter-Blue cell-based survival/proliferation assay, CALU6; conditions: Homo sapiens, Calu-6; CALU6 lung tumor cell line, 48 h
How it was run: as §1

[22] = tested on: HEP2; experiment: CellTiter-Blue cell-based survival/proliferation assay, HEP2; conditions: Homo sapiens, HEp-2; HEP2 head & neck tumor cell line, 48 h
How it was run: as §1

[23] = tested on: CLS354; experiment: CellTiter-Blue cell-based survival/proliferation assay, CLS354; conditions: Homo sapiens, CLS-354; CLS354_4 head & neck tumor cell line, 48 h
How it was run: as §1

[24] = tested on: HEPG2; experiment: CellTiter-Blue cell-based survival/proliferation assay, HEPG2; conditions: Homo sapiens; HEPG2 liver tumor cell line, 48 h
How it was run: as §1

[25] = tested on: HUT78; experiment: CellTiter-Blue cell-based survival/proliferation assay, HUT78; conditions: Homo sapiens, Lymphoma cell line HUT78, 48 h, read-out: Anti-tumoral activity (measured IC50) HUT78
How it was run: as §1

[26] = tested on: KARPAS299; experiment: CellTiter-Blue cell-based survival/proliferation assay, KARPAS299; conditions: Homo sapiens, KARPAS-299, Lymphoma cell line KARPAS299, 48 h, read-out: Anti-tumoral activity (measured IC50) KARPAS299
How it was run: as §1

[27] = tested on: MDAMB231; experiment: CellTiter-Blue cell-based survival/proliferation assay, MDAMB231; conditions: Homo sapiens, MDA-MB-231; MDAMB231 breast tumor cell line, 48 h
How it was run: as §1

[28] = tested on: DLD1; experiment: CellTiter-Blue cell-based survival/proliferation assay, DLD1; conditions: Homo sapiens, DLD-1; DLD_1 colorectal tumor cell line, 48 h
How it was run: as §1

[29] = tested on: DU145; experiment: CellTiter-Blue cell-based survival/proliferation assay, DU145; conditions: Homo sapiens, DU-145; DU145 prostate tumor cell line, 48 h
How it was run: as §1

SMILES | IC50 [1] | IC50 [2] | IC50 [3] | IC50 [4] | IC50 [5] | IC50 [6] | IC50 [7] | IC50 [8] | IC50 [9] | IC50 [10] | IC50 [12] | IC50 [13] | IC50 [14] | IC50 [15] | IC50 [16] | IC50 [17] | IC50 [18] | IC50 [19] | IC50 [20] | IC50 [21] | other results
CCOCc1ccc(C)c(Nc2ncc(-c3ccc(-n4cccn4)cc3)o2)c1 [Example 033, (5-Ethoxymethyl-2-methyl-phenyl)-[5-(4-pyrazol-1-yl-phenyl)-oxazol-2-yl]-amine] | ≤ 100 nM | 100 to 500 nM | ≤ 100 nM | 500 to 1000 nM | 100 to 500 nM | > 1000 nM | ≤ 100 nM | 100 to 500 nM | ≤ 100 nM | > 1000 nM | 100 to 500 nM | > 1000 nM | ≤ 100 nM | ≤ 100 nM | 100 to 500 nM | ≤ 100 nM | > 1000 nM | ≤ 100 nM | ≤ 100 nM | ≤ 100 nM | Interaction with the 456 kinases tested ([11]; screened at 1 μM): do not efficiently interact; Number of hits/number of kinases, S1 ([11]; tested at 1 μM, S(1): kinases with % Ctrl<1): 0/456; S-score, S1 ([11]; tested at 1 μM, S(1)=(number of kinases with % Ctrl<1)/(number of kinases tested)): 0.000; Number of hits/number of kinases, S10 ([11]; tested at 1 μM, S(10): kinases with % Ctrl<10): 1/456; S-score, S10 ([11]; tested at 1 μM, S(10)=(number of kinases with % Ctrl<10)/(number of kinases tested)): 0.002; Kinase targets, S10 ([11]; tested at 1 μM, kinases with % Ctrl<10): CDKL3; IC50 [22]: ≤ 100 nM; IC50 [23]: ≤ 100 nM; IC50 [24]: 500 to 1000 nM; IC50 [25]: ≤ 100 nM; IC50 [26]: ≤ 100 nM; IC50 [27]: > 1000 nM; IC50 [28]: ≤ 100 nM; IC50 [29]: > 1000 nM
CCOCc1ccc(C)c(Nc2ncc(-c3ccc(N4CCN(CCNC(C)=O)C4=O)cc3)o2)c1 [Example 046, N-[2-(3-{4-[2-(5-Ethoxymethyl-(2-methyl-phenylamino))-oxazol-5-yl]-phenyl}-2-oxo-imidazolidin-1-yl)-ethyl]-acetamide] | > 1000 nM | > 1000 nM | > 1000 nM | > 1000 nM | > 1000 nM | > 1000 nM | > 1000 nM | > 1000 nM | > 1000 nM | > 1000 nM | > 1000 nM | > 1000 nM | > 1000 nM | > 1000 nM | > 1000 nM | > 1000 nM | > 1000 nM | > 1000 nM | > 1000 nM | > 1000 nM | IC50 [22]: > 1000 nM; IC50 [23]: > 1000 nM; IC50 [24]: > 1000 nM; IC50 [25]: > 1000 nM; IC50 [26]: > 1000 nM; IC50 [27]: > 1000 nM; IC50 [28]: > 1000 nM; IC50 [29]: > 1000 nM
CCOCc1ccc(C)c(Nc2ncc(-c3ccc(-c4ccccn4)cc3)o2)c1 [Example 048, (5-Ethoxymethyl-2-methyl-phenyl)-[5-(4-pyridin-2-yl-phenyl)-oxazol-2-yl]-amine] | > 1000 nM | > 1000 nM | > 1000 nM | > 1000 nM | > 1000 nM | > 1000 nM | > 1000 nM | > 1000 nM | > 1000 nM | > 1000 nM | > 1000 nM | > 1000 nM | 100 to 500 nM | > 1000 nM | > 1000 nM | 500 to 1000 nM | > 1000 nM | 500 to 1000 nM | 500 to 1000 nM | > 1000 nM | IC50 [22]: > 1000 nM; IC50 [23]: 500 to 1000 nM; IC50 [24]: > 1000 nM; IC50 [25]: 500 to 1000 nM; IC50 [26]: 500 to 1000 nM; IC50 [27]: > 1000 nM; IC50 [28]: > 1000 nM; IC50 [29]: > 1000 nM
CCOCc1ccc(C)c(Nc2ncc(-c3ccc(-n4ccccc4=O)cc3)o2)c1 [Example 049, 1-{4-[2-(5-Ethoxymethyl-(2-methyl-phenylamino))-oxazol-5-yl]-phenyl}-1H-pyridin-2-one] | > 1000 nM | > 1000 nM | > 1000 nM | > 1000 nM | > 1000 nM | > 1000 nM | > 1000 nM | > 1000 nM | > 1000 nM | > 1000 nM | > 1000 nM | > 1000 nM | > 1000 nM | > 1000 nM | > 1000 nM | > 1000 nM | > 1000 nM | > 1000 nM | > 1000 nM | > 1000 nM | IC50 [22]: > 1000 nM; IC50 [23]: > 1000 nM; IC50 [24]: > 1000 nM; IC50 [25]: > 1000 nM; IC50 [26]: > 1000 nM; IC50 [27]: > 1000 nM; IC50 [28]: > 1000 nM; IC50 [29]: > 1000 nM
CCOCc1ccc(C)c(Nc2ncc(-c3ccc(-c4ccc[nH]c4=O)cc3)o2)c1 [Example 050, 3-{4-[2-(5-Ethoxymethyl-(2-methyl-phenylamino))-oxazol-5-yl]-phenyl}-1H-pyridin-2-one] | > 1000 nM | > 1000 nM | > 1000 nM | > 1000 nM | > 1000 nM | > 1000 nM | > 1000 nM | > 1000 nM | > 1000 nM | > 1000 nM | > 1000 nM | > 1000 nM | 500 to 1000 nM | > 1000 nM | > 1000 nM | 500 to 1000 nM | > 1000 nM | 500 to 1000 nM | 500 to 1000 nM | > 1000 nM | IC50 [22]: > 1000 nM; IC50 [23]: > 1000 nM; IC50 [24]: > 1000 nM; IC50 [25]: > 1000 nM; IC50 [26]: 100 to 500 nM; IC50 [27]: > 1000 nM; IC50 [28]: > 1000 nM; IC50 [29]: > 1000 nM
